Test results as given in patent US20080318954A1, “Compounds” (Cyclacel Limited, priority 2004, published 2008).

Experiments:
[1] = system: Lck; assay: Protein kinase panel selectivity screen, Lck; type: biochemical; conditions: 1 μM compound; [ATP] 50 μM
Protocol: (§1) The names of the 29 kinases comprising the selectivity screen, as well as the ATP concentrations used in each kinase case, are given in Table 5. The kinase assays were carried out as described previously.
(§2) Compound XIV at a concentration of 1 μM was screened in the 29-kinase panel (Dundee University) and the results are shown bellow in Table 6.

[2] = biological target: T1, CDK2/cyclin E (Homo sapiens, UniProt P24941); assay: CDK/cyclin kinase assay, CDK2/cyclin E; type: biochemical
T1 construct: His6 (N); made in house; host or cells: Sf9 insect cells (baculovirus)
Protocol: CDK4/cyclin D1, CDK1/cyclin B, CDK2/cyclin E, CDK2/cyclin A, CDK9/cyclin T1 and CDK7/cyclin H, all with a His6 tag on the N-terminus, were expressed in Sf9 insect cells using an appropriate baculovirus construct. Sf9 culture (1.6×10^6 cells/mL) was infected (MOI of 3) for two days. The cells were harvested by low speed centrifugation and the protein was purified from the insect cell pellet by metal affinity chromatography. In short: the insect cell pellet was lysed in Buffer A (10 mM Tris-HCl pH 8.0, 150 mM NaCl, 0.02% NP-40, 5 mM β-mercaptoethanol, 20 mM NaF, 1 mM Na3VO4, and Sigma Protease Inhibitor Cocktail) by sonication. The soluble fraction was cleared by centrifugation and loaded onto Ni-NTA-Agarose (Qiagen). Non-bound protein was washed off with 300 mM NaCl, 5-15 mM imidazole in buffer A and the bound protein was eluted with buffer A supplemented with 250 mM imidazole. The purified proteins were extensively dialyzed against storage buffer (20 mM HEPES pH 7.4, 50 mM NaCl, 2 mM DTT, 1 mM EDTA, 1 mM EGTA, 0.02% NP-40, 10% v/v glycerol) and stored at −70° C.
Compounds were investigated for their CDK2/cyclin E, CDK2/cyclin A, CDK1/cyclin B, and CDK4/cyclin D1 inhibitory activity. His6-tagged recombinant human cyclin-dependent kinases CDK1/cyclin B1, CDK2/cyclin E, CDK2/cyclin A, and CDK4 were expressed in sf9 insect cells using a baculovirus expression system. Recombinant cyclin D1 was expressed in E. coli. Proteins were purified by metal chelate affinity chromatography to greater than 90% homogeneity. Kinase assays were performed in 96-well plates using recombinant CDK/cyclins. Assays were performed in assay buffer (25 mM β-glycerophosphate, 20 mM MOPS, 5 mM EGTA, 1 mM DTT, 1 mM […], pH 7.4), into which were added 2-4 μg of active enzyme with appropriate substrates (purified histone H1 for CDK1 and CDK2, recombinant GST-retinoblastoma protein (residues 773-928) for CDK4). The reaction was initiated by addition of Mg/ATP mix (15 mM MgCl2+100 μM ATP with 30-50 kBq per well of [γ-^32P]-ATP) and mixtures incubated for 10-45 min, as required, at 30° C. Reactions were stopped on ice, followed by filtration through p81 or GF/C filterplates (for CDK4) (Whatman Polyfiltronics, Kent, UK). After washing 3 times with 75 mM aq orthophosphoric acid, plates were dried, scintillant added and incorporated radioactivity measured in a scintillation counter (TopCount, Packard Instruments, Pangbourne, Berks, UK). Compounds for kinase assays were made up as 10 mM stocks in DMSO and diluted into 10% DMSO in assay buffer. Data was analysed using curve-fitting software (GraphPad Prism version 3.00 for Windows, GraphPad Software, San Diego Calif. USA) to determine IC50 values (concentration of test compound which inhibits kinase activity by 50%).

[3] = system: glycogen synthase activity in HEK293 cells; assay: Glycogen synthase (GS) assay in HEK293 cells; type: cell-based, human
Protocol: Cells on 10 cm dishes (Human Embryonic Kidney (HEK) 293 cells, L6 rat myocytes, or 3T3 mouse adipocytes) were treated with different concentrations of GSK3-inhibitors or DMSO vehicle for 90 min. Incubation medium was removed and cells were washed with ice-cold phosphate-buffered saline (PBS) prior to lysis on ice in 50 mM HEPES, pH 7.5, 10 mM EDTA, 100 mM NaF, 5 mM DTT, protease inhibitor cocktail (Sigma). After a freeze/thaw cycle the samples are sonicated for 10 sec and centrifuged at 15,000 g for 10 min at 4° C. Lysate supernatants were snap-frozen on liquid nitrogen and stored at −80° C. Lysates were assayed for glycogen synthase activity in buffer (50 mM Tris-HCl, pH 7.8, 20 mM EDTA, 25 mM NaF, 5 mM DTT, 1% glycogen, 0.3 mM UDP-glucose and 0.06 μCi of [^14C]-UDP-glucose in the presence of 0.1 or 10 mM glucose-6-phosphate. The reaction was carried out for 30 min at 30° C. 70 μL of the reaction mixture (total volume 90 μL) were transferred to a GFC 96-well filter plate (bottom sealed with foil), containing 140 μL 96% ethanol. The GFC plate was incubated for 1 h on ice and than washed with 66% ethanol. To each well 100 μL scintillant liquid was added and the radioactivity of the samples was measured using a scintillation counter (Topcount, HP). Data are expressed as -fold increase in glycogen synthase activity ratios over those of control samples.

[4] = system: CK1; assay: Protein kinase panel selectivity screen, CK1; type: biochemical; conditions: 1 μM compound; [ATP] 20 μM
Protocol: as §1, §2

[5] = system: ZDF fa/fa rats; assay: Oral glucose tolerance test (OGTT); type: in vivo, rat; conditions: 5 mg/kg i.v. at −270 and −30 min, 2 g/kg oral glucose
Protocol: Test compound was administrated in 10-11 weeks old ZDF rats at 5 mg/kg i.v. at −270 and −30 min. At 0 min 2 g/kg oral glucose load was given and blood samples were collected at 15 min intervals to determine the blood glucose levels.
For the OGTT male ZDF fa/fa rats (Charles River, USA), 10-11 weeks old, were used. After 15 h fasting the animals were dosed intravenously with 5 mg/kg test compound in dosing vehicle, or with dosing vehicle (10% DMSO, 90% PEG-400) only at −270 and −30 min. At 0 min the rats were given 2 g/kg glucose by oral gavage. Plasma samples were taken before and every 15 min after the OGTT for determination of blood glucose.

[6] = biological target: T2, MSK1 (Homo sapiens, UniProt O75582); assay: Protein kinase panel selectivity screen, MSK1; type: biochemical; conditions: 1 μM compound; [ATP] 20 μM
T2 construct: Dundee University (panel)
Protocol: as §1, §2

[7] = biological target: T3, DYRK1a (Homo sapiens, UniProt Q13627); assay: Protein kinase panel selectivity screen, DYRK1a; type: biochemical; conditions: 1 μM compound; [ATP] 50 μM
T3 construct: Dundee University (screening panel)
Protocol: as §1, §2

T2 sequence (O75582 whole entry, species assumed): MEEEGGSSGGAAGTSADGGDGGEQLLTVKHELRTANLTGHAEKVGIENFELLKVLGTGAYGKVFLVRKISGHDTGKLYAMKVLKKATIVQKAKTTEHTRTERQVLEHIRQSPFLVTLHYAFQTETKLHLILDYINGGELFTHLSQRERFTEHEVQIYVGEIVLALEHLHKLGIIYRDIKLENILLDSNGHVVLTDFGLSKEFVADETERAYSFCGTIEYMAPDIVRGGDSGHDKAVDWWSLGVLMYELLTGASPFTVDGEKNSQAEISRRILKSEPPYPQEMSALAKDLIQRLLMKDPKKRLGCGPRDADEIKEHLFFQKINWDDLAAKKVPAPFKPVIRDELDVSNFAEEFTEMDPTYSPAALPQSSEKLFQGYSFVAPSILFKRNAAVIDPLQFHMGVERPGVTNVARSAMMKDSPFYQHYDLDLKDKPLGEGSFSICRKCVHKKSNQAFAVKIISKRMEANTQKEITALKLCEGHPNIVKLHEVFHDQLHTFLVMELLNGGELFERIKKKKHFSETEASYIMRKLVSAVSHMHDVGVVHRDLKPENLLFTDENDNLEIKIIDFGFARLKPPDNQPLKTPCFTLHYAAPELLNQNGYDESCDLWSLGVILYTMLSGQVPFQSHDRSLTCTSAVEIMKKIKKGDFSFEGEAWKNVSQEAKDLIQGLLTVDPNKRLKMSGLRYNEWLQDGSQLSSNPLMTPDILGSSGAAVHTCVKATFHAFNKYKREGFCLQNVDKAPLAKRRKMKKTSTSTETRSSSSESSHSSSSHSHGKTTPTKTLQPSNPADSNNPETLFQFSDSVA

## Clc1ccc(Nc2nccc(-c3nccs3)n2)cn1 [Compound XIV, (6-Chloro-pyridin-3-yl)-(4-thiazol-2-yl-pyrimidin-2-yl)-amine]
[1]
  % Activity Lck: 66 ± 5%
[2]
  Ki: 5.5 µM
  Selectivity IC50 (CDK2/E)/IC50 (GSK3β): 63
[2]; from Ki
  Fold selectivity for GSK3 over CDK2/cyclin E: 345 fold
[2]; read-out: Kinase inhibition IC50 CDK2/E
  IC50: 11 µM
[3]; HEK293 cells, 5 μM
  Activation of GS compared with 40 mM LiCl: comparable to that induced by 40 mM LiCl
[3]; HEK293 cells, ratio of activity at 0.1 and 10 mM glucose-6-phosphate
  Activity of glycogen synthase (fractional velocity): increased the activity of glycogen synthase
[3]; Homo sapiens, HEK293, from dose-response curves, read-out: EC50 activation of glycogen synthase
  EC50: 1.5 ± 0.6 µM
[3]; Homo sapiens, HEK293 cells, 0.1 μM
  fold induction at 0.1 µM: 0.9
[3]; Homo sapiens, HEK293 cells, 0.5 μM
  fold induction at 0.5 µM: 1.1
[3]; Homo sapiens, HEK293 cells, 1 μM
  fold induction at 1 µM: 1.6
[3]; Homo sapiens, HEK293 cells, 5 μM (Table 4)
  fold induction at 5 µM: 3.3
[3]; Homo sapiens, In HEK293 cells at [compound] = 5 μM (Table 2)
  fold induction at 5 µM: 3.7
[4]
  % Activity CK1: 69 ± 1%
[5]
  Decrease of absolute AUC level (blood glucose): 29%
  Decrease of reactive AUC level (blood glucose): 44%
  Glucose tolerance: improved the glucose tolerance in ZDF rats significantly
[6]
  activity at 1 µM: 90 ± 6%
[7]
  activity at 1 µM: 74 ± 8%
